Reference: patent publication US20090317371A1, “Method, Composition, and Device, for the Treatment of Amylase Malfunctions / Inactivity in Association with Saccharides (Mainly Polysaccharides) Based Diseases” (priority 2008, published 2009)

Assay: In-vitro testing of glucose units in a glucose solution before and after mixing with the agent
Format: biochemical
Conditions: 10 mls of 10% glucose solution (more than 600 mg/dl before)
Protocol: Our methods were: In-vitro testing to determine glucose units in a glucose solution before and after mixing with Amzylite against other known hypoglaycaemic agents (metformin, sulfonylurea, etc) including insulin. 10 mls of 10% concentrated glucose solution tested for glucose concentration using glucose oxidase and or hexokinase (glucometers can also be used). […] One or two capsule of Amzylite was added to the glucose solution. In-vivo: 141 type I and type II diabetics with diabetes neuropathy, in addition to 9 diabetics with renal incompetency, 15 diabetics with chronic wounds to extremities, 2 diabetics had progressive gas gangrene, all patients had neuropathy with impaired sensations to distal extremities and one none diabetic with renal failure were identified. 31 out of 141 were excluded for incomplete records. 8 self discharged. 128 classified into 4 groups: 33 on insulin therapy; 20 on insulin and oral hypoglycaemic agents, 58 on only oral hypoglycaemic therapy, 16 on diet control only. 9 with high creatinine levels, 15 with chronic wounds, 2 had gas gangrene to distal extremities and one non diabetic had renal incompetency and was on dialysis. Laboratory tests were determined before and after starting Amzylite. No placebo was given.
In-vitro testing to determine glucose units in a glucose solution before and after mixing with Amzylite against other known hypoglaycaemic agents (metformin, sulfonylurea, etc) including insulin. 10 mls of 10% concentrated glucose solution tested for glucose concentration using glucose oxidase and or hexokinase (glucometers can also be used). […] One capsule of Amzylite added to the glucose solution. For In-vivo study to determine the effectiveness of Amzylite as treatment for D.M. 141 patients with type I and type II D.M were treated with Amzylite. 31 patients were excluded for incomplete records. 8 patients' self withdrawn. […] Fasting and 2 hours postprandial blood glucose levels (HbA1c checked in some but not all patients) were determined before starting Amzylite. […] Saliva enzymes function tests were determined for disaccharides and polysaccharides in all patients. […] Improvement in patients' symptoms, daily glucose readings (fasting/2 hour postprandial) and HbA1c were set up as target and evaluation criteria. […] Changes were also determined by […]. 1—Improvement with complete recovery, 2—Significant improvement of symptoms and readings (range 70-170 mg/dl and below 200 mg/dl), 3—Improved symptoms but no change on readings, 4—Improved readings but no improvement on symptoms, 5—No change on symptoms or readings, 6—Higher or lower glucose readings. […]

[1] = one capsule of Amzylite, second study
[2] = one or two capsules of Amzylite, first study

Row | Molecule | In vitro glucose readings after mixing [1] | In vitro glucose readings after mixing [2]
1 | CN(C)C(=N)N=C(N)N [metformin] | No changes | No changes
2 | insulin | No changes | No changes
